“And” between values parts separate entries of the source, which are not always exact repeats. Identical values can stand only once. Toxic doses and inconclusive results are not listed.
Test system: BDF1 mice, P388 leukemia ip, median survival T/C
Assay: NCI In Vivo Anticancer Drug Screen. Data for tumor model P388 Leukemia (intraperitoneal) in B6D2F1 (BDF1) mice
Conditions: endpoint: median survival time, higher = longer survival
How it was run: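 Each value expresses how treatment altered survival: treated-mouse outcome over vehicle-mouse outcome, both groups bearing the transplanted tumour.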

[1] = dose: 50.0 mg/kg/injection, schedule: Q01DX001 (ip), vehicle: saline
[2] = dose: 100.0 mg/kg/injection, schedule: Q01DX001 (ip), vehicle: saline
[3] = dose: 50.0 mg/kg/injection, schedule: Q04DX003 (ip), vehicle: Klucel (hydroxypropylcellulose) (HPC)
[4] = dose: 50.0 mg/kg/injection, schedule: Q01DX009 (ip), vehicle: saline
[5] = dose: 100.0 mg/kg/injection, schedule: Q01DX009 (ip), vehicle: saline
[6] = dose: 100.0 mg/kg/injection, schedule: Q04DX003 (ip), vehicle: saline
[7] = dose: 200.0 mg/kg/injection, schedule: Q01DX009 (ip), vehicle: saline
[8] = dose: 200.0 mg/kg/injection, schedule: Q04DX003 (ip), vehicle: saline
[9] = dose: 100.0 mg/kg/injection, schedule: Q01DX001 (ip), vehicle: Klucel (hydroxypropylcellulose) (HPC)
[10] = dose: 200.0 mg/kg/injection, schedule: Q01DX001 (ip), vehicle: Klucel (hydroxypropylcellulose) (HPC)
[11] = dose: 400.0 mg/kg/injection, schedule: Q01DX001 (ip), vehicle: Klucel (hydroxypropylcellulose) (HPC)
[12] = dose: 100.0 mg/kg/injection, schedule: Q01DX009 (ip), vehicle: saline with Tween-80
[13] = dose: 200.0 mg/kg/injection, schedule: Q01DX009 (ip), vehicle: saline with Tween-80
[14] = dose: 50.0 mg/kg/injection, schedule: Q01DX009 (ip), vehicle: saline with Tween-80
[15] = dose: 100.0 mg/kg/injection, schedule: Q04DX003 (ip), vehicle: saline with Tween-80
[16] = dose: 200.0 mg/kg/injection, schedule: Q04DX003 (ip), vehicle: saline with Tween-80
[17] = dose: 6.25 mg/kg/injection, schedule: Q01DX009 (ip), vehicle: saline with Tween-80
[18] = dose: 12.5 mg/kg/injection, schedule: Q01DX009 (ip), vehicle: saline with Tween-80

In the case of `c1cc2cnc3cccc4cnc(c1)c2c43`, the T/C (dose: 100.0 mg/kg/injection, schedule: Q01DX001 (ip), vehicle: saline sonified) is reported as 100 % of control and the T/C (dose: 400.0 mg/kg/injection, schedule: Q01DX001 (ip), vehicle: saline sonified) is reported as 100 % of control.
For `CNC(=S)N(C)C`, the T/C [1] was 95 % of control, the T/C [2] was 103 % of control and 104 % of control and the T/C (dose: 200.0 mg/kg/injection, schedule: Q01DX001 (ip), vehicle: saline) was 95 % of control and 104 % of control. The T/C (dose: 400.0 mg/kg/injection, schedule: Q01DX001 (ip), vehicle: saline) was 91 % of control.
`O=C(O)/C=C/c1c[nH]c(=O)[nH]c1=O` was tested, and the T/C (dose: 25.0 mg/kg/injection, schedule: Q04DX003 (ip), vehicle: Klucel (hydroxypropylcellulose) (HPC)) was 101 % of control, the T/C [3] was 101 % of control and the T/C (dose: 100.0 mg/kg/injection, schedule: Q04DX003 (ip), vehicle: Klucel (hydroxypropylcellulose) (HPC)) was 115 % of control.
For `NC(N)=NCCCCCC(=O)Oc1ccc([N+](=O)[O-])cc1`, the T/C [4] was 96 % of control, the T/C (dose: 50.0 mg/kg/injection, schedule: Q04DX003 (ip), vehicle: saline) was 90 % of control and 91 % of control and the T/C [5] was 99 % of control. For the same compound, the T/C [6] was 87 % of control and 90 % of control, the T/C [7] was 115 % of control and the T/C [8] was 91 % of control and 100 % of control.
For `CNC(=O)NC1C(O)COC(OC)C1O` (stereo not given), the T/C (dose: 150.0 mg/kg/injection, schedule: Q01DX001 (ip), vehicle: saline) was 104 % of control and the T/C (dose: 300.0 mg/kg/injection, schedule: Q01DX001 (ip), vehicle: saline) was 109 % of control.
In the case of `COC(=O)CSC/C(=N\Nc1ccccc1)c1ccccc1`, the T/C [9] is reported as 95 % of control, the T/C [10] is reported as 100 % of control and the T/C [11] is reported as 109 % of control.
With `COC(=O)C1C(O)C(C)C(OC(C)=O)C(C)/C=C\C=C(C)C(=O)Nc2c(C)c(OC(C)=O)c3c(c2O)C(=O)C(C)=C2OCOC(=C23)C(C)=CC(C)(O)C(O)C(C)C1O` (stereo not given) the T/C (dose: 100.0 mg/kg/injection, schedule: Q01DX009 (ip), vehicle: Klucel (hydroxypropylcellulose) (HPC)) was 101 % of control, the T/C (dose: 200.0 mg/kg/injection, schedule: Q01DX009 (ip), vehicle: Klucel (hydroxypropylcellulose) (HPC)) was 106 % of control and the T/C (dose: 400.0 mg/kg/injection, schedule: Q01DX009 (ip), vehicle: Klucel (hydroxypropylcellulose) (HPC)) was 110 % of control.
In the case of `COc1cccc2c1C(=O)c1c(O)c3c(c(O)c1C2=O)C[C@@](O)(C(=O)CO)C[C@@H]3OC1CC(NC(=S)Nc2ccc3ccccc3c2)C(O)C(C)O1` (stereo not given in full), the T/C (dose: 1.56 mg/kg/injection, schedule: Q01DX009 (ip), vehicle: saline) is reported as 95 % of control, the T/C (dose: 3.12 mg/kg/injection, schedule: Q01DX009 (ip), vehicle: saline) is reported as 86 % of control and the T/C (dose: 6.25 mg/kg/injection, schedule: Q01DX009 (ip), vehicle: saline) is reported as 94 % of control. The T/C (dose: 25.0 mg/kg/injection, schedule: Q01DX009 (ip), vehicle: saline) was 99 % of control and 107 % of control, the T/C [4] was 107 % of control and the T/C [5] was 96 % of control.
`CCCC(NC(=O)OCc1ccccc1)C(=O)O` (stereo not given) was tested, and the T/C [12] was 105 % of control and the T/C [13] was 105 % of control.
With `BrC1C2C=CCC1CC2` (stereo not given) the T/C [5] was 100 % of control, the T/C [6] was 91 % of control and the T/C [7] was 90 % of control. For the same compound, the T/C [8] was 91 % of control, the T/C (dose: 400.0 mg/kg/injection, schedule: Q01DX009 (ip), vehicle: saline) was 104 % of control and the T/C (dose: 400.0 mg/kg/injection, schedule: Q04DX003 (ip), vehicle: saline) was 95 % of control.
With `CCN1C(=O)CN=C(c2ccccn2)c2cc(Cl)ccc21` the T/C [9] was 90 % of control, the T/C [10] was 104 % of control and the T/C [11] was 95 % of control.
In the case of `CC[N+](C)(C)CC`, the T/C (dose: 25.0 mg/kg/injection, schedule: Q01DX001 (ip), vehicle: saline) is reported as 105 % of control, the T/C [1] is reported as 103 % of control and the T/C [2] is reported as 96 % of control and 117 % of control.
With `Oc1cc2c(cc1O)C1c3ccc(O)c(O)c3OCC1(O)C2` (stereo not given) the T/C [14] was 97 % of control, the T/C [12] was 118 % of control and the T/C [13] was 102 % of control. For the same compound, the T/C (dose: 400.0 mg/kg/injection, schedule: Q01DX009 (ip), vehicle: saline with Tween-80) was 103 % of control.
`O=NN(CCF)C(=O)NC12CC3CC(CC(C3)C1)C2` was tested, and the T/C (dose: 5.5 mg/kg/injection, schedule: Q04DX003 (ip), vehicle: Klucel (hydroxypropylcellulose) (HPC)) was 104 % of control, the T/C (dose: 11.0 mg/kg/injection, schedule: Q04DX003 (ip), vehicle: Klucel (hydroxypropylcellulose) (HPC)) was 112 % of control and the T/C (dose: 12.0 mg/kg/injection, schedule: Q01DX009 (ip), vehicle: Klucel (hydroxypropylcellulose) (HPC)) was 158 % of control. For the same compound, the T/C (dose: 22.0 mg/kg/injection, schedule: Q04DX003 (ip), vehicle: Klucel (hydroxypropylcellulose) (HPC)) was 162 % of control and 180 % of control, the T/C (dose: 25.0 mg/kg/injection, schedule: Q01DX009 (ip), vehicle: Klucel (hydroxypropylcellulose) (HPC)) was 250 % of control and the T/C (dose: 33.0 mg/kg/injection, schedule: Q04DX003 (ip), vehicle: Klucel (hydroxypropylcellulose) (HPC)) was 240 % of control. For the same compound, the T/C [3] was 245 % of control and 300 % of control.
In the case of `CCCOP(=S)(N1CC1(C)C)N1CC1(C)C` (stereo not given), the T/C (dose: 66.0 mg/kg/injection, schedule: Q01DX009 (ip), vehicle: saline with Tween-80) is reported as 168 % of control, the T/C [12] is reported as 209 % of control and 222 % of control and the T/C [15] is reported as 116 % of control. For the same compound, the T/C [16] was 108 % of control.
With `Cc1cc(C)nc(NN)n1` the T/C [17] was 98 % of control, the T/C [18] was 96 % of control and the T/C (dose: 25.0 mg/kg/injection, schedule: Q01DX009 (ip), vehicle: saline with Tween-80) was 101 % of control. The T/C [14] was 102 % of control.
With `O=C1CC(c2ccc(Br)cc2)N(c2ccc([As](=O)(O)O)cc2)C1=O` (stereo not given) the T/C (dose: 3.13 mg/kg/injection, schedule: Q01DX009 (ip), vehicle: saline with Tween-80) was 90 % of control, the T/C [17] was 109 % of control and the T/C [18] was 109 % of control.
For `CC1C(=O)CCC2(C)C1CCC1C3CCC(O)C3(C)CCC12` (stereo not given), the T/C [15] was 95 % of control, the T/C [16] was 100 % of control and the T/C (dose: 400.0 mg/kg/injection, schedule: Q04DX003 (ip), vehicle: saline with Tween-80) was 91 % of control.
`CCc1nnc2n1N=C(c1ccc(-c3ccccc3)cc1)CS2` was tested, and the T/C [14] was 90 % of control, the T/C [12] was 89 % of control and the T/C [13] was 90 % of control.
For `Clc1ccc(Oc2ccc(N3C=Nc4ccc(Oc5ccc(Cl)cc5)cc4C3)cc2)cc1`, the T/C (dose: 100.0 mg/kg/injection, schedule: Q04DX003 (ip), vehicle: alcohol) was 100 % of control, the T/C (dose: 200.0 mg/kg/injection, schedule: Q04DX003 (ip), vehicle: alcohol) was 100 % of control and the T/C (dose: 400.0 mg/kg/injection, schedule: Q04DX003 (ip), vehicle: alcohol) was 95 % of control.
`CCCC(Sc1nc(N)nc2nc[nH]c12)C(=O)O` (stereo not given) was tested, and the T/C (dose: 100.0 mg/kg/injection, schedule: Q01DX009 (ip), vehicle: saline sonified) was 115 % of control, the T/C (dose: 100.0 mg/kg/injection, schedule: Q04DX003 (ip), vehicle: saline sonified) was 109 % of control and the T/C (dose: 200.0 mg/kg/injection, schedule: Q04DX003 (ip), vehicle: saline sonified) was 118 % of control. The T/C (dose: 400.0 mg/kg/injection, schedule: Q01DX009 (ip), vehicle: saline sonified) was 100 % of control and the T/C (dose: 400.0 mg/kg/injection, schedule: Q04DX003 (ip), vehicle: saline sonified) was 109 % of control.
In the case of `CN(C)c1ccccc1.[C-]#[O+].[C-]#[O+].[C-]#[O+].[Cr]`, the T/C [15] is reported as 91 % of control.
`CC(=O)O[C@]1(C(C)=O)CC[C@H]2[C@@H]3C[C@H](Cl)C4=CC(=O)CC[C@]4(C)[C@H]3CC[C@@]21C` was tested, and the T/C [14] was 113 % of control, the T/C [12] was 109 % of control and the T/C [15] was 108 % of control. For the same compound, the T/C [13] was 100 % of control and the T/C [16] was 100 % of control.
With `CCCC[P+](c1ccccc1)(c1ccccc1)c1ccccc1` the T/C (dose: 0.6 mg/kg/injection, schedule: Q01DX009 (ip), vehicle: saline) was 122 % of control, the T/C (dose: 1.2 mg/kg/injection, schedule: Q01DX009 (ip), vehicle: saline) was 105 % of control and the T/C (dose: 2.5 mg/kg/injection, schedule: Q01DX009 (ip), vehicle: saline) was 150 % of control. The T/C (dose: 5.0 mg/kg/injection, schedule: Q01DX009 (ip), vehicle: saline) was 115 % of control and the T/C (dose: 40.0 mg/kg/injection, schedule: Q01DX009 (ip), vehicle: saline) was 95 % of control.

From PubChem BioAssay AID328 (DTP/NCI, 2004)
